Test system: Aedes aegypti UGAL mosquito strain (adult female)
Experiment: Mortality assay on treated filter paper
Assay type: in vivo
Conditions: 0.5% solution; within the first 20 minutes; FIG. 4
Procedure: A mortality assay was employed to evaluate mosquito mortality in response to exposure to eleven different treatments including water, a series of NKT dilutions, and 0.5% permethrin. The Aedes aegypti UGAL mosquito strain (adult female) was used in this example.
The experiments were conducted in a well-lit, temperature- and humidity-controlled room. The room was 22-24° C. with humidity at 40-45%. To conduct these experiments, each treatment had four replicates under the same conditions. A filter paper, 10 cm in diameter, was treated with 340 μl of an experimental or control solution using a standardized spray bottle (113.3 μl/spray) that was held approximately 5 cm away from the paper. The treated filter paper was placed into an open petri dish with a diameter of 10 cm. […] Female mosquitoes were then anesthetized on ice for five minutes. After 60 minutes, 10 ice-anesthetized adult female mosquitoes were transferred onto the treated paper using soft featherweight forceps. The petri dish lid was placed on top, and the mosquitoes were given two minutes to revive before the timer was started. Mosquitoes were then monitored every five minutes. Mosquitoes on their back were considered knocked down and marked as deceased in these experiments. […] Log-rank (Mantel-Cox) test was performed for comparison of survival curves.

`CC1(C)C(C=C(Cl)Cl)C1C(=O)OCc1cccc(Oc2ccccc2)c1` (stereo not shown) [permethrin] was tested, and the knockdown effect was “strong immediate knockdown effect”.
